Assay results: patent publication US10414775B2 (Merck Sharp & Dohme Corp., priority 2016, dated 2019)
Counter-ions that a name gives are not always drawn.

Each molecule was assayed against T1, Human CYP8B1 (Homo sapiens, UniProt Q9UNU6) (assay: Human Cyp8B1 Liver Microsome Assay). Settings: human liver microsomes; substrate 7α-hydroxy-4-cholesten-3-one, NADPH; 30 min pre-incubation, 45 min reaction; RapidFire MS readout.
T1 construct: tissue Xenotech; host or cells: human liver microsomes
T1 sequence (Q9UNU6 1-501): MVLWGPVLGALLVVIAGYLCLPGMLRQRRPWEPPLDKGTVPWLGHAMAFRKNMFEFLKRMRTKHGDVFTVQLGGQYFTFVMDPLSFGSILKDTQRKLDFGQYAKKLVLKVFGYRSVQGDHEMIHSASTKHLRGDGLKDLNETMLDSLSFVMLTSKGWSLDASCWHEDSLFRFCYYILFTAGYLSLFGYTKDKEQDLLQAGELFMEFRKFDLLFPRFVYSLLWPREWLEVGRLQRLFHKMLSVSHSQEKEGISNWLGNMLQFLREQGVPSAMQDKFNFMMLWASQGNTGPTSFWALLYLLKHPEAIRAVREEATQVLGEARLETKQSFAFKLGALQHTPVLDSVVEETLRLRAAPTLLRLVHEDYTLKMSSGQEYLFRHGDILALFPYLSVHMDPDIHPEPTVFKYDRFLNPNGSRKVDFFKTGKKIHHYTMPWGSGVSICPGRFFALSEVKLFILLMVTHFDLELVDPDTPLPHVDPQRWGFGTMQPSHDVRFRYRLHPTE
Assay type: biochemical
Experimental: Human Cyp8B1 Liver Microsome Assay To a 384 well polypropylene plate (Corning 3656), 250 nl of inhibitor in 100% DMSO (1.25% final DMSO concentration) was pre-plated using an Echo liquid handler (Labcyte Inc.). Human liver microsomes (Xenotech) were diluted in of 0.1 M phosphate buffer, pH 7.4, at a concentration of 65 μg/ml and 15 μL was added to the 384 well plate. The plates were incubated at ambient room temperature for 30 minutes. After pre-incubation with inhibitor, the reaction was initiated by adding 5 μl of substrate solution (4.0 μM 7α-hydroxy-4-cholesten-3-one(Toronto Research Chemicals), 2 mM of NADPH (Sigma), 0.1 M phosphate buffer (pH 7.4). The reaction was carried out for 45 minutes at ambient room temperature and was quenched by the addition of 50 μl of acetonitrile+0.1% vol/vol formic acid (FA)+300 nM 7α-hydroxy-4-cholesten-3-one-d7 (Toronto Research Chemicals). The plates were sealed and centrifuged at 3000 rpm for 5 minutes. Plates were loaded onto the Agilent RapidFire RF300 HTMS system, wherein samples were sipped for 600 ms, and the sip sensor detection signals the diversion of sample from the loop onto a C4 solid phase extraction (SPE) cartridge, where salts are washed off for 2500 ms with a mobile phase of water with 0.1% vol/vol FA at a flow rate of 1.5 ml/min. The column path is switched, and the sample is eluted off the cartridge and flowed into the mass spectrometer for 3000 ms with a mobile phase of acetonitrile and 0.1% vol/vol FA at a flow rate of 1.25 ml/min. The aspirator tip was washed separately with water and acetonitrile between sample aspirations (each for 600 ms) to minimize carryover contamination. Mass spectrometry was carried out using a Sciex API4000 triple quadrupole mass spectrometer (Applied Biosystems, Concord, ON, Canada) equipped with electrospray ionization (ESI) operated in the positive-ion mode. The product 7α, 12α-dihydroxy-4-cholesten-3-one and internal standard 7α-hydroxy-4-cholsten-3-one-d7 were detected using multiple reaction monitoring (MRM) with Q1/Q3 transitions at m/z 417.3 to 381.3 and m/z 408.3 to 390.3, respectively, with a dwell time of 100 ms and a collision energy of 24 V for each transition. The mass spectrometer used an ESI voltage of 5000 V and a source temperature of 650° C. Extracted ion chromatograms for each transition were integrated and processed using the RapidFire Integrator software. The data for each well were normalized by monitoring product conversion with the ratio of AUCproduct/(AUCinternal standard). The data was then fitted to a four parameter logistic fit using ActivityBase Software to calculate an IC50 of the inhibitor.
With `C[C@@H]1CN(c2ccnc3ccc(Cl)cc23)CC[C@@H]1C(=O)N1CCn2c(nnc2C(F)(F)F)C1` (single isomer, unassigned) [Example 11a] the IC50 was 3.5 nM. `C[C@H]1CN(c2ccnc3ccc(Cl)cc23)CC[C@H]1C(=O)N1CCn2c(nnc2C(F)(F)F)C1` (single isomer, unassigned) [Example 11b] was tested, and the IC50 was 1180 nM. `C[C@H](O)c1ccc2c(N3CC[C@H](C(=O)N4CCn5c(nnc5C(F)(F)F)C4)[C@H](C)C3)c(Cl)cnc2c1` (single isomer, unassigned) [Example 44a] was tested, and the IC50 was 0.34 nM. Work on `C[C@@H]1CN(c2c(Cl)cnc3cc([C@@H](C)O)ccc23)CC[C@@H]1C(=O)N1CCn2c(nnc2C(F)(F)F)C1` (single isomer, unassigned) [Example 44b] yielded an IC50 of 1.2 nM. With `CCOC(=O)c1cnc2ccc(F)cc2c1N1CC[C@H](C(=O)N2CCn3c(nnc3C(F)(F)F)C2)[C@H](C)C1` [Example 1, ethyl 6-fluoro-4-[(3S,4S)-3-methyl-4-{[3-(trifluoromethyl)-5,6-dihydro[1,2,4]triazolo[4,3-a]pyrazin-7(8H)-yl]carbonyl}piperidin-1-yl]quinoline-3-carboxylate] the IC50 was 3680 nM. `C[C@@H]1CN(c2ccnc3cc(Cl)cnc23)CC[C@@H]1C(=O)N1CCn2c(nnc2C(F)(F)F)C1` [Example 2, ((3S,4S)-1-(7-chloro-1,5-naphthyridin-4-yl)-3-methylpiperidin-4-yl)(3-(trifluoromethyl)-5,6-dihydro-[1,2,4]triazolo[4,3-a]pyrazin-7(8H)-yl)methanone] showed an IC50 of 18 nM. `COc1ccc2c(N3CC[C@H](C(=O)N4CCn5c(nnc5C(F)(F)F)C4)[C@H](C)C3)c(Cl)cnc2c1` [Example 3, ((3S,4S)-1-(3-chloro-7-methoxyquinolin-4-yl)-3-methylpiperidin-4-yl)(3-(trifluoromethyl)-5,6-dihydro-[1,2,4]triazolo[4,3-a]pyrazin-7(8H)-yl)methanone] gave an IC50 of 0.2 nM. Work on `C[C@@H]1CN(c2c(Cl)cnc3cc(F)ccc23)CC[C@@H]1C(=O)N1CCn2c(nnc2C(F)(F)F)C1` [Example 4, ((3S,4S)-1-(3-chloro-7-fluoroquinolin-4-yl)-3-methylpiperidin-4-yl)(3-(trifluoromethyl)-5,6-dihydro-[1,2,4]triazolo[4,3-a]pyrazin-7(8H)-yl)methanone] yielded an IC50 of 0.6 nM. Work on `C[C@@H]1CN(c2c(C(F)(F)F)cnc3ccccc23)CC[C@@H]1C(=O)N1CCn2c(nnc2C(F)(F)F)C1` [Example 5, ((3S,4S)-3-methyl-1-(3-(trifluoromethyl)quinolin-4-yl)piperidin-4-yl)(3-(trifluoromethyl)-5,6-dihydro-[1,2,4]triazolo[4,3-a]pyrazin-7(8H)-yl)methanone] yielded an IC50 of 1 nM. Molecule `C[C@@H]1CN(c2c(Cl)cnc3c(F)cccc23)CC[C@@H]1C(=O)N1CCn2c(nnc2C(F)(F)F)C1` [Example 6, ((3S,4S)-1-(3-chloro-8-fluoroquinolin-4-yl)-3-methylpiperidin-4-yl)(3-(trifluoromethyl)-5,6-dihydro-[1,2,4]triazolo[4,3-a]pyrazin-7(8H)-yl)methanone] has an IC50 of 0.9 nM. With `C[C@@H]1CN(c2c(C(F)F)cnc3c(F)c(Cl)ccc23)CC[C@@H]1C(=O)N1CCn2c(nnc2C(F)(F)F)C1` [Example 7, ((3S,4S)-1-(7-chloro-3-(difluoromethyl)-8-fluoroquinolin-4-yl)-3-methylpiperidin-4-yl)(3-(trifluoromethyl)-5,6-dihydro-[1,2,4]triazolo[4,3-a]pyrazin-7(8H)-yl)methanone] the IC50 was 0.7 nM. Work on `COc1cnc2c(N3CC[C@H](C(=O)N4CCn5c(nnc5C(F)(F)F)C4)[C@H](C)C3)c(Cl)cnc2c1` [Example 8, ((3S,4S)-1-(3-chloro-7-methoxy-1,5-naphthyridin-4-yl)-3-methylpiperidin-4-yl)(3-(trifluoromethyl)-5,6-dihydro-[1,2,4]triazolo[4,3-a]pyrazin-7(8H)-yl)methanone] yielded an IC50 of 1.2 nM. For `COc1ccc2c(N3CC[C@H](C(=O)N4CCn5c(nnc5C(F)(F)F)C4)[C@H](C)C3)c([N+](=O)[O-])cnc2c1` [Example 9, ((3S,4S)-1-(7-methoxy-3-nitroquinolin-4-yl)-3-methylpiperidin-4-yl)(3-(trifluoromethyl)-5,6-dihydro-[1,2,4]triazolo[4,3-a]pyrazin-7(8H)-yl)methanone], the IC50 was 0.2 nM. In the case of `CC1CN(c2ccnc3ccc(Cl)cc23)CCC1C(=O)N1CCn2c(nnc2C(F)(F)F)C1` (stereo not shown) [Example 10, [1-(6-chloroquinolin-4-yl)-3-methylpiperidin-4-yl][3-(trifluoromethyl)-5,6-dihydro[1,2,4]triazolo[4,3-a]pyrazin-7(8H)-yl]methanone], the IC50 is reported as 8.5 nM. `C[C@@H]1CN(c2ccnc3cc(C(F)(F)F)ccc23)CC[C@@H]1C(=O)N1CCn2c(nnc2C(F)(F)F)C1` [Example 12, {(3S,4S)-3-methyl-1-[7-(trifluoromethyl)quinolin-4-yl]piperidin-4-yl}[3-(trifluoromethyl)-5,6-dihydro[1,2,4]triazolo[4,3-a]pyrazin-7(8H)-yl]methanone] showed an IC50 of 5.2 nM. Work on `Cc1cc(N2CC[C@H](C(=O)N3CCn4c(nnc4C(F)(F)F)C3)[C@H](C)C2)c2cc(Cl)ccc2n1` [Example 13, [(3S,4S)-1-(6-chloro-2-methylquinolin-4-yl)-3-methylpiperidin-4-yl][3-(trifluoromethyl)-5,6-dihydro[1,2,4]tria-zolo[4,3-a]pyrazin-7(8H)-yl]methanone] yielded an IC50 of 3040 nM. `C[C@@H]1CN(c2ccnc3ccc(F)cc23)CC[C@@H]1C(=O)N1CCn2c(nnc2C(F)(F)F)C1` [Example 14, [(3S,4S)-1-(6-fluoroquinolin-4-yl)-3-methylpiperidin-4-yl][3-(trifluoromethyl)-5,6-dihydro[1,2,4]tria-zolo[4,3-a]pyrazin-7(8H)-yl]methanone] was tested, and the IC50 was 52 nM. Work on `Cc1cc(N2CC[C@H](C(=O)N3CCn4c(nnc4C(F)(F)F)C3)[C@H](C)C2)c2cc(F)ccc2n1` [Example 15, [(3S,4S)-1-(6-fluoro-2-methylquinolin-4-yl)-3-methylpiperidin-4-yl][3-(trifluoromethyl)-5,6-dihydro[1,2,4]tria-zolo[4,3-a]pyrazin-7(8H)-yl]methanone] yielded an IC50 of 245 nM. For `Cc1nc2ccc(F)cc2c(N2CC[C@H](C(=O)N3CCn4c(nnc4C(F)(F)F)C3)[C@H](C)C2)c1C` [Example 16, [(3S,4S)-1-(6-fluoro-2,3-dimethylquinolin-4-yl)-3-methylpiperidin-4-yl][3-(trifluoromethyl)-5,6-dihydro[1,2,4]tria-zolo[4,3-a]pyrazin-7(8H)-yl]methanone], the IC50 was 37 nM. `Cc1cc(N2CC[C@H](C(=O)N3CCn4c(nnc4C(F)(F)F)C3)[C@H](C)C2)c2cc(F)cc(F)c2n1` [Example 17, [(3S,4S)-1-(6,8-difluoro-2-methylquinolin-4-yl)-3-methylpiperidin-4-yl][3-(trifluoromethyl)-5,6-dihydro[1,2,4]tria-zolo[4,3-a]pyrazin-7(8H)-yl]methanone] gave an IC50 of 145 nM. In the case of `Cc1cc(N2CC[C@H](C(=O)N3CCn4c(nnc4C(F)(F)F)C3)[C@H](C)C2)c2ccc(F)c(F)c2n1` [Example 18, 7,8-difluoro-2-methyl-4-[(3S,4S)-3-methyl-4-{[3-(trifluoromethyl)-5,6-dihydro[1,2,4]tria-zolo[4,3-a]pyrazin-7(8H)-yl]carbonyl}piper-idin-1-yl]quinolinium trifluoroacetate], the IC50 is reported as 385 nM. `Cc1cc(N2CC[C@H](C(=O)N3CCn4c(nnc4C(F)(F)F)C3)[C@H](C)C2)c2ccc(Cl)cc2n1` [Example 19, 7-chloro-2-methyl-4-[(3S,4S)-3-methyl-4-{[3-(trifluoromethyl)-5,6-dihydro[1,2,4]tria-zolo[4,3-a]pyrazin-7(8H)-yl]carbonyl}piper-idin-1-yl]quinolinium trifluoroacetate] was tested, and the IC50 was 107 nM.
